# Where two headings read alike, the source gives them in different places. Square brackets hold non-standard residues; d marks the D form. Peptide text beside a SMILES is read from it. hTyr = N[C@@H](CCc1ccc(O)cc1)C(=O)O
# Key:
# Calu-3 cells [1] = settings: 10 μM (150 times the IC50); MTT and annexin-V/PI, 24, 48 or 72 h (Fig. 3f)
# Vero-E6 cells [2] = settings: for toxicity in Vero-E6: MTT 0.1-10 µM and annexin-V/PI 10 µM, 24, 48 or 72 h (Fig. 3c)
# [3] = tested on: SARS-CoV-2 clinical isolate SARS-CoV-2/PSL2020 in Calu-3 cells; format: cell-based; settings: for efficacy in reducing SARS-CoV-2 viral titers: pulmonary cells, 1 µM
# Calu-3 cells [4] = tested on: Calu-3 cells
# [5] = target: SARS-CoV-2 spike RBD (Fc-tagged 2019-nCoV RBD-SD1) (Severe acute respiratory syndrome coronavirus 2, UniProt P0DTC2); assay: biochemical; format: binding; settings: for kon: read-out: ka, association constant; for koff: read-out: kdis, dissociation constant; for Kd: Table 1 of the earlier manuscript version, quoted by Reviewer #2, superseded
# [6] = HPLC retention time (LC-MS method B); format: physicochemical; settings: method B: X-Select CSH C18 XP, 0.1% formic acid water/acetonitrile, 5-100% B in 3.2 min, 1.8 mL min^−1, 40 °C; used as indicator of hydrophobicity
# [7] = Helical content by circular dichroism; format: physicochemical; settings: 60 µM peptide, 50 mM sodium phosphate buffer pH 7.4, 25 °C, DichroWeb CDSSTR deconvolution
# Source text: The conformation of synthesized peptides in aqueous solution was investigated by circular dichroism (CD) spectroscopy. […] The deconvolution of the CD spectra using DichroWeb[25] allowed us to estimate the helical population for each peptide, which is reported in Table 1. Overall, an excellent agreement was observed between the Agadir-computed values and the experimental helical population inferred from CD data. […] The introduction of a proline residue in peptide P5 has a strong destabilizing effect on helical conformation (17%) whereas Leu/hTyr substitution only led to a slight decrease of the helical content (P7 versus P6 and P10 versus P8).
# Fig. 2 Far-UV CD spectra of synthesized peptides. […] CD measurements are reported as molar ellipticity per residue.
# CD spectra were recorded on a Jasco J-815 CD spectropolarimeter equipped with a Peltier temperature controller. Data were obtained at 25 °C over a wavelength range between 185 nm and 270 nm, using a wavelength interval of 0.2 nm and a scan rate of 20 nm min^−1. Peptide samples were prepared at a concentration of 60 µM in 50 mM sodium phosphate buffer, pH 7.4, in a quartz cell of 1 mm path length. CD experiments were processed and plotted with R program. CD spectra were analyzed using DICHROWEB web server and CDSSTR deconvolution algorithm.
# [8] = tested on: SARS-CoV-2 clinical isolate SARS-CoV-2/PSL2020 in Calu-3 cells; settings: clinical isolate /PSL2020 in Calu-3 cells, 48 h
# Vero-E6 cells [9] = settings: 10 µM
# [10] = tested on: SARS-CoV-2 clinical isolate SARS-CoV-2/PSL2020 in Vero-E6 cells; settings: for % Inhibition, Moyenne / % Inhibition, Q2 (Median): clinical isolate /PSL2020 in Vero-E6 cells, 48 h, 10 µM; for % Inhibition of SARSCoV-2 replication at 10 μM: mean of at least three independent experiments
# [11] = EXP1, peptide 10 µM, 24 h (0 µM: 16%)
# [12] = EXP1, peptide 10 µM, 48 h (0 µM: 18%)
# [13] = EXP1, peptide 10 µM, 72 h (0 µM: 23%)
# [14] = EXP2, peptide 10 µM, 24 h (0 µM: 13%)
# [15] = EXP2, peptide 10 µM, 48 h (0 µM: 17%)
# [16] = EXP2, peptide 10 µM, 72 h (0 µM: 20%)
# [17] = EXP3, peptide 10 µM, 24 h (Vehicle: 15%)
# [18] = EXP3, peptide 10 µM, 48 h (Vehicle: 18%)
# [19] = EXP3, peptide 10 µM, 72 h (Vehicle: 22%)
# [20] = BLI EXP1, sample conc. ACE2 10 nM, P8 100 nM, P9 and P10 1000 nM
# [21] = BLI EXP2, sample conc. ACE2 100 nM, P8 1000 nM, P9 and P10 1111 nM
# [22] = BLI EXP3, sample conc. ACE2 100 nM, P9 10000 nM, P10 1000 nM
compound,measurement,setting,value
CSCC[C@H](NC(=O)[C@H](Cc1ccccc1)NC(=O)[C@H](CCCCN)NC(=O)[C@H](CC(=O)O)NC(=O)[C@H](CC(C)C)NC(=O)[C@H](Cc1ccccc1)NC(=O)[C@@H](NC(=O)[C@H](CCCCN)NC(=O)[C@H](CCc1ccc(O)cc1)NC(=O)[C@H](CCC(N)=O)NC(=O)[C@H](CCC(=O)O)NC(=O)[C@H](CCC(=O)O)NC(=O)[C@H](CC(C)C)NC(=O)[C@H](C)NC(=O)[C@@H](N)CO)[C@@H](C)O)C(=O)N[C@@H](Cc1c[nH]cn1)C(=O)N[C@@H](CCC(=O)O)C(=O)N[C@@H](CC(C)C)C(=O)N[C@@H](CCC(=O)O)C(=O)N[C@@H](CC(=O)O)C(=O)N[C@@H](CC(C)C)C(=O)N[C@@H](CC(C)C)C(=O)N[C@@H](Cc1ccc(O)cc1)C(=O)N[C@@H](CCC(N)=O)C(=O)N[C@@H](CC(C)C)C(=O)N[C@@H](CO)C(=O)N[C@@H](CC(C)C)C(N)=O [P9] (H-SALEEQ[hTyr]KTFLDKFMHELEDLLYQLSL-NH2),cytotoxicity in uninfected Calu-3 cells,Calu-3 cells [1],no cytotoxicity
same,Cell viability (MTT),"Vero-E6 cells [2]; 48 h, 10 µM",95%
same,toxicity in Vero-E6,Vero-E6 cells [2],devoid of toxicity
same,SARSCoV-2 virus titer at 1 μM (PFU mL^−1) on Calu-3,[3],0 PFU mL^−1
same,efficacy in reducing SARS-CoV-2 viral titers,[3],100%
same,Cell death (AnnV+PI),Calu-3 cells [4]; [11],21%
same,Cell death (AnnV+PI),Calu-3 cells [4]; [12],19%
same,Cell death (AnnV+PI),Calu-3 cells [4]; [13],19%
same,Cell death (AnnV+PI),Calu-3 cells [4]; [14],16%
same,Cell death (AnnV+PI),Calu-3 cells [4]; [15],19%
same,Cell death (AnnV+PI),Calu-3 cells [4]; [16],23%
same,Cell death (AnnV+PI),Calu-3 cells [4]; [17],20%
same,Cell death (AnnV+PI),Calu-3 cells [4]; [18],20%
same,Cell death (AnnV+PI),Calu-3 cells [4]; [19],22%
same,kon,[5]; [20],1020 M⁻¹ s⁻¹
same,koff,[5]; [20],< 1e-07 s⁻¹
same,kon,[5]; [21],1100 M⁻¹ s⁻¹
same,koff,[5]; [21],< 1e-07 s⁻¹
same,kon,[5]; [22],254 M⁻¹ s⁻¹
same,koff,[5]; [22],< 1e-07 s⁻¹
same,Kd,[5],< 1 nM
same,"RT, HPLC retention time",[6],"2,31 min"
same,Experimental helical content%,[7],53%
same,IC50,[8],53 nM
same,Cell death (AnnV+PI),"Vero-E6 cells [9]; 24 h, EXP1, flow cytometry",3.3%
same,Cell death (AnnV+PI),"Vero-E6 cells [9]; 24 h, EXP2, flow cytometry",4.72%
same,Cell death (AnnV+PI),"Vero-E6 cells [9]; 24 h, EXP3, flow cytometry",3.62%
same,Cell death (AnnV+PI),"Vero-E6 cells [9]; 48 h, EXP1, flow cytometry",9%
same,Cell death (AnnV+PI),"Vero-E6 cells [9]; 48 h, EXP2, flow cytometry",7%
same,Cell death (AnnV+PI),"Vero-E6 cells [9]; 48 h, EXP3, flow cytometry",8%
same,Cell death (AnnV+PI),"Vero-E6 cells [9]; 72 h, EXP1, flow cytometry",4.4%
same,Cell death (AnnV+PI),"Vero-E6 cells [9]; 72 h, EXP2, flow cytometry",2.34%
same,Cell death (AnnV+PI),"Vero-E6 cells [9]; 72 h, EXP3, flow cytometry",2.25%
same,"% Inhibition, Moyenne",[10],94.5%
same,"% Inhibition, Q2 (Median)",[10],94.5%
CSCC[C@H](NC(=O)[C@H](Cc1ccccc1)NC(=O)[C@H](CCCCN)NC(=O)[C@H](CC(=O)O)NC(=O)[C@H](CC(C)C)NC(=O)[C@H](Cc1ccccc1)NC(=O)[C@@H](NC(=O)[C@H](CCCCN)NC(=O)[C@H](CCc1ccc(O)cc1)NC(=O)[C@H](CCC(N)=O)NC(=O)[C@H](CCC(=O)O)NC(=O)[C@H](CCC(=O)O)NC(=O)[C@H](CC(C)C)NC(=O)[C@H](C)NC(=O)[C@@H](N)CO)[C@@H](C)O)C(=O)N[C@@H](Cc1c[nH]cn1)C(=O)N[C@@H](CCC(=O)O)C(=O)N[C@@H](CC(C)C)C(=O)N[C@@H](CCC(=O)O)C(=O)N[C@@H](CC(=O)O)C(=O)N[C@@H](CC(C)C)C(=O)N[C@@H](CC(C)C)C(=O)N[C@@H](Cc1ccc(O)cc1)C(=O)N[C@@H](CCC(N)=O)C(=O)N[C@@H](CC(C)C)C(=O)N[C@@H](C)C(=O)N[C@@H](CC(C)C)C(N)=O [P10] (H-SALEEQ[hTyr]KTFLDKFMHELEDLLYQLAL-NH2),cytotoxicity in uninfected Calu-3 cells,Calu-3 cells [1],no cytotoxicity
same,Cell viability (MTT),"Vero-E6 cells [2]; 72 h, 1 µM",96%
same,toxicity in Vero-E6,Vero-E6 cells [2],devoid of toxicity
same,SARSCoV-2 virus titer at 1 μM (PFU mL^−1) on Calu-3,[3],0 PFU mL^−1
same,efficacy in reducing SARS-CoV-2 viral titers,[3],100%
same,Cell death (AnnV+PI),Calu-3 cells [4]; [11],23%
same,Cell death (AnnV+PI),Calu-3 cells [4]; [12],19%
same,Cell death (AnnV+PI),Calu-3 cells [4]; [13],23%
same,Cell death (AnnV+PI),Calu-3 cells [4]; [14],17%
same,Cell death (AnnV+PI),Calu-3 cells [4]; [15],20%
same,Cell death (AnnV+PI),Calu-3 cells [4]; [16],22%
same,Cell death (AnnV+PI),Calu-3 cells [4]; [17],19%
same,Cell death (AnnV+PI),Calu-3 cells [4]; [18],19%
same,Cell death (AnnV+PI),Calu-3 cells [4]; [19],19%
same,kon,[5]; [20],2490 M⁻¹ s⁻¹
same,koff,[5]; [20],< 1e-07 s⁻¹
same,kon,[5]; [21],1410 M⁻¹ s⁻¹
same,koff,[5]; [21],< 1e-07 s⁻¹
same,kon,[5]; [22],1430 M⁻¹ s⁻¹
same,koff,[5]; [22],< 1e-07 s⁻¹
same,Kd,[5],< 1 nM
same,"RT, HPLC retention time",[6],"2,34 min"
same,Experimental helical content%,[7],56%
same,IC50,[8],42 nM
same,Cell death (AnnV+PI),"Vero-E6 cells [9]; 24 h, EXP1, flow cytometry",4%
same,Cell death (AnnV+PI),"Vero-E6 cells [9]; 24 h, EXP2, flow cytometry",5.38%
same,Cell death (AnnV+PI),"Vero-E6 cells [9]; 24 h, EXP3, flow cytometry",5.49%
same,Cell death (AnnV+PI),"Vero-E6 cells [9]; 48 h, EXP1, flow cytometry",7%
same,Cell death (AnnV+PI),"Vero-E6 cells [9]; 48 h, EXP2, flow cytometry",5.69%
same,Cell death (AnnV+PI),"Vero-E6 cells [9]; 48 h, EXP3, flow cytometry",6.33%
same,Cell death (AnnV+PI),"Vero-E6 cells [9]; 72 h, EXP1, flow cytometry",4%
same,Cell death (AnnV+PI),"Vero-E6 cells [9]; 72 h, EXP2, flow cytometry",2.55%
same,Cell death (AnnV+PI),"Vero-E6 cells [9]; 72 h, EXP3, flow cytometry",3%
same,% Inhibition of SARSCoV-2 replication at 10 μM,[10],95%
same,"% Inhibition, Moyenne",[10],95.1%
same,"% Inhibition, Q2 (Median)",[10],95.1%
Ac-SALEEQLKTFLDKFLHELEDLLYQLAL-NH2 [P4],"RT, HPLC retention time",[6],"2,69 min"
same,Experimental helical content%,[7],70%
same,% Inhibition of SARSCoV-2 replication at 10 μM,[10],24%
same,"% Inhibition, Moyenne",[10],24.0%
same,"% Inhibition, Q2 (Median)",[10],16.9%
"H-AHLFSYLTTKEEQDNDAIFLQEFSKES-NH2 [P1scr, reference compound]","RT, HPLC retention time",[6],"1,54 min"
same,Experimental helical content%,[7],8%
same,% Inhibition of SARSCoV-2 replication at 10 μM,[10],7%
same,"% Inhibition, Moyenne",[10],6.7%
same,"% Inhibition, Q2 (Median)",[10],6.4%
H-SALEEQLKTFLDKFLHELEDLLYQLAL-NH2 [P3],"RT, HPLC retention time",[6],"2,53 min"
same,Experimental helical content%,[7],64%
same,% Inhibition of SARSCoV-2 replication at 10 μM,[10],4%
same,"% Inhibition, Moyenne",[10],3.9%
same,"% Inhibition, Q2 (Median)",[10],3.3%
H-SALEEQLKTFLDKFLHELEDLLYQLALAL-NH2 [P6],"RT, HPLC retention time",[6],"2,74 min"
same,Experimental helical content%,[7],80%
same,"% Inhibition, Moyenne",[10],6.5%
same,"% Inhibition, Q2 (Median)",[10],4.9%
H-SALEEQLKTFLDKFLHELEDLLYQLSL-NH2 [P2],"RT, HPLC retention time",[6],1.47 min
same,Experimental helical content%,[7],70%
same,% Inhibition of SARSCoV-2 replication at 10 μM,[10],16%
same,"% Inhibition, Moyenne",[10],16.0%
same,"% Inhibition, Q2 (Median)",[10],20.0%
H-SALEEQLKTFLDKFLHELEDPLYQLAL-NH2 [P5],"RT, HPLC retention time",[6],"2,16 min"
same,Experimental helical content%,[7],17%
same,% Inhibition of SARSCoV-2 replication at 10 μM,[10],27%
same,"% Inhibition, Moyenne",[10],26.6%
same,"% Inhibition, Q2 (Median)",[10],20.4%
